Reference: patent US11926574B2, “Dimethoxyphenylalkylamine activators of serotonin receptors” (Entheogenix Biosciences, Inc., priority 2021, dated 2024)
Where a name gives a salt, the structure may show the parent alone. Read-outs that look alike come from different tables or passages of the source.

Columns and labels:
Format in all cases: cell-based
5-HT1A = biological target: T1, 5-HT1A (Homo sapiens, UniProt P08908); assay: Calcium mobilization assay (Gq signaling), 5-HT1A
T1 sequence (P08908 1-422): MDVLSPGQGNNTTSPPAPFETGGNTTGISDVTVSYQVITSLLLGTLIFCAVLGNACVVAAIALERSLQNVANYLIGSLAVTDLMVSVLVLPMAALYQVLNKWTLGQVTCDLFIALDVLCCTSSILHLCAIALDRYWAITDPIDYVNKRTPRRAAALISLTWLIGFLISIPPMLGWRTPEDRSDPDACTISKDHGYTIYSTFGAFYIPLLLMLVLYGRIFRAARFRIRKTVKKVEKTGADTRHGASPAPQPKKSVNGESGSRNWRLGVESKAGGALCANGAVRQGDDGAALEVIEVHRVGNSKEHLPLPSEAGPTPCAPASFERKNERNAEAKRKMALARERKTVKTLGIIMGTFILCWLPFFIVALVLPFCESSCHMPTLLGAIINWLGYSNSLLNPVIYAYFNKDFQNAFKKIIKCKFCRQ
Protocol: (§1) The Calcium No-Wash^PLUS assay monitors the activation of a GPCR via Gq secondary messenger signaling in a live cell, non-imaging assay format. Calcium mobilization in PathHunter® cell lineSOR other cell lines stably expressing Gq-Coupled GPCR5 is monitored using a calcium-sensitive dye that is loaded into cells. GPCR activation by a compound results in the release of calcium from intracellular stores and an increase in dye fluorescence that is measured in real-time.
(§2) Cell lines expressing the GPCR of interest were expanded from freezer stocks according to standard procedures. […] Compound agonist activity was measured on a FLIPR Tetra (MDS). Calcium mobilization was monitored for 2 minutes and 10 μL 4× sample in HB SS/20 mM Hepes was added to the cells 5 seconds into the assay. Compound activity data was analyzed using CBIS data analysis suite (ChemInnovation, California). For agonist mode assays, percentage activity is calculated using the following formula: % Activity=100%×(mean RFU of test sample−mean RFU of vehicle control)/(mean MAX RFU control ligand−mean RFU of vehicle control). […]
(§3) Compounds 1-1·HCl, 1-2 and 2-1 were assessed for biological activity across a panel of 5-HT receptors including 5-HT2A, 5-HT2B, 5-HT2C and 5-HT1A. Biased signaling was assessed by monitoring both intracellular Gq-mediated calcium release, as well as beta-arrestin activation and recruitment to the GPCR.

5HT2A [1] = biological target: T2, 5HT2A (Homo sapiens, UniProt P28223); assay: Calcium mobilization assay (Gq signaling), 5-HT2A; conditions: for type of agonism of 5-HT2A mediated signaling: EC50 profiles, FIG. 1; for Emax: read-out: maximum effect level, Gq signaling
Protocol: as §1
(§4) Cell lines expressing the GPCR of interest were expanded from freezer stocks according to standard procedures. Cells were seeded in a total volume of 20 μL into black-walled, clear-bottom, Poly-D-lysine coated 384-well microplates and incubated at 37° C. for the appropriate time prior to testing. Assays were performed in 1× Dye Loading Buffer consisting of 1× Dye, 1× Additive A and 2.5 mM Probenecid in HB SS/20 mM Hepes. Probenicid was prepared fresh. Cells were loaded with dye prior to testing. Media was aspirated from cells and replaced with 20 μL Dye Loading Buffer. Cells were incubated for 30-60 minutes at 37° C. For agonist determination, cells were incubated with sample to induce response. After dye loading, cells were removed from the incubator and 10 μL HBSS/20 mM Hepes was added. 3× vehicle was included in the buffer when performing agonist dose curves to define the EC80 for subsequent antagonist assays. Cells were incubated for 30 minutes at room temperature in the dark to equilibrate plate temperature. Intermediate dilution of sample stocks was performed to generate 4× sample in assay buffer. Compound agonist activity was measured on a FLIPR Tetra (MDS). Calcium mobilization was monitored for 2 minutes and 10 μL 4× sample in HB SS/20 mM Hepes was added to the cells 5 seconds into the assay. Compound activity data was analyzed using CBIS data analysis suite (ChemInnovation, California). For agonist mode assays, percentage activity is calculated using the following formula: % Activity=100%×(mean RFU of test sample−mean RFU of vehicle control)/(mean MAX RFU control ligand−mean RFU of vehicle control). In these studies, the MAX RFU was generated by using 0.1 μM serotonin for the calcium mobilization assay.
as §3

5-HT2B = 5-HT2B (Homo sapiens, UniProt P41595); assay: Calcium mobilization assay (Gq signaling), 5-HT2B
Protocol: as §1
as §4, with “3× vehicle was included in the buffer when performing agonist dose curves to define the EC80 for subsequent antagonist assays. Cells were incubated for 30 minutes at room temperature in the dark to equilibrate plate temperature. Intermediate dilution of sample stocks was performed to generate 4× sample in assay buffer.” left out, “In these studies, the MAX RFU was generated by using 0.1 μM serotonin for the calcium mobilization assay.” left out
as §3

5-HT2C = biological target: T3, 5-HT2C (Homo sapiens, UniProt P28335); assay: Calcium mobilization assay (Gq signaling), 5-HT2C
T3 sequence (P28335 33-458): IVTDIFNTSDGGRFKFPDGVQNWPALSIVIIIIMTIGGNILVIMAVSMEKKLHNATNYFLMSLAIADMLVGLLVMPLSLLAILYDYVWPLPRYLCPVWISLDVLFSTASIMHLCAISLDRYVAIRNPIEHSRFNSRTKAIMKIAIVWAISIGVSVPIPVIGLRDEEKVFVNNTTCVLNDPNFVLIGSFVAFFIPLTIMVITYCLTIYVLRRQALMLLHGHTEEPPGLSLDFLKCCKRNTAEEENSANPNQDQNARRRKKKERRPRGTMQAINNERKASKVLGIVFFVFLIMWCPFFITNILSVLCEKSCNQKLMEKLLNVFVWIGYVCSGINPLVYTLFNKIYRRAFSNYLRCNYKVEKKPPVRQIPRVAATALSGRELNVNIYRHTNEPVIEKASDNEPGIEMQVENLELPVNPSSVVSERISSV
Protocol: as §1, §2, §3

5HT2A [2] = biological target: T2, 5HT2A; assay: PathHunter β-Arrestin assay, 5-HT2A
Protocol: PathHunter cell lines (DiscoveRx Eurofins) were expanded from freezer stocks according to standard procedures. Cells were seeded in a total volume of 20 μL into white walled, 384-well microplates and incubated at 37° C. for the appropriate time prior to testing. For agonist determination, cells were incubated with sample to induce response. Intermediate dilution of sample stocks was performed to generate 5× sample in assay buffer. 5 μL of 5× sample was added to cells and incubated at 37° C. or room temperature for 90 to 180 minutes. […] Microplates were read following signal generation with a PerkinElmer Envision™ instrument for chemiluminescent signal detection. Compound activity was analyzed using CBIS data analysis suite (ChemInnovation, California). For agonist mode assays, percentage activity was calculated using the following formula: % Activity=100%×(mean RLU of test sample−mean RLU of vehicle control)/(mean MAX control ligand−mean RLU of vehicle control). […]
as §3

5HT2A [3] = biological target: T2, 5HT2A; assay: 5HT2A Activity (% Max Activation @ 0.3 uM)

T2 sequence (P28223 whole entry): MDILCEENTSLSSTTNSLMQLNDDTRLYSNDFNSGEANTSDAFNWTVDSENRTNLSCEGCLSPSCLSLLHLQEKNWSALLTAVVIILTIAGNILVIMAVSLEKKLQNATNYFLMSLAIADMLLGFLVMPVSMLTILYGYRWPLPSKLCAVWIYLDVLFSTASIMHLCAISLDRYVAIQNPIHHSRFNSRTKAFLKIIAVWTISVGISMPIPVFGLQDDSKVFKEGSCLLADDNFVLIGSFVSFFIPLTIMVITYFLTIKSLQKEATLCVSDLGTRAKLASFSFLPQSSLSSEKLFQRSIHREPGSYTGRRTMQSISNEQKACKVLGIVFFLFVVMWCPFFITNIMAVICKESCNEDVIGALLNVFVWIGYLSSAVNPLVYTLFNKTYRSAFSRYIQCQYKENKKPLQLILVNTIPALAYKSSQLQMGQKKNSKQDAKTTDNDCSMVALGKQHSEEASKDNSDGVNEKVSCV
Sequence of 5-HT2B (P41595 whole entry): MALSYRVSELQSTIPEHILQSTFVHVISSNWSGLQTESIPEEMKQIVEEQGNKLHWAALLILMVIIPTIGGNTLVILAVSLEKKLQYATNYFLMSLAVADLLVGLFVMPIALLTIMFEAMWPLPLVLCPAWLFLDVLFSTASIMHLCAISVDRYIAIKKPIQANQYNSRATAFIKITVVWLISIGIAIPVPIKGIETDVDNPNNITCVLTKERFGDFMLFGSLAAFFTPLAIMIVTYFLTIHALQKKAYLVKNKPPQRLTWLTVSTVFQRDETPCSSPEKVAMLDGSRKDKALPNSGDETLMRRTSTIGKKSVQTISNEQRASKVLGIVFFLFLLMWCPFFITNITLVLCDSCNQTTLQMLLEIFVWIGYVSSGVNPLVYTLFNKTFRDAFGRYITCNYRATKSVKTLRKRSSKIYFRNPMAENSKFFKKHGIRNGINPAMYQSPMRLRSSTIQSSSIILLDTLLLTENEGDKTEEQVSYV

| Compound | EC50 (5-HT1A; Gq signaling, read-out: EC50, 5-HT1A (Gq signaling)) | EC50 (5HT2A [1]) | type of agonism of 5-HT2A mediated signaling (5HT2A [1]) | Emax (5HT2A [1]) | EC50 (5-HT2B; Gq signaling, read-out: EC50, 5-HT2B (Gq signaling)) | EC50 (5-HT2C; Gq signaling, read-out: EC50, 5-HT2C (Gq signaling)) | EC50 (5HT2A [2]) | EC50 (5-HT1A) | selectivity for 5-HT2A over 5-HT2B (5HT2A [1]; 5-HT2A compared to 5-HT2B) | EC50 (5-HT2B) | activity at 5-HT2B (5-HT2B; concentrations less than 10 uM) | EC50 (5-HT2C) | Emax at 0.3 µM (5HT2A [3]) |
| --- | --- | --- | --- | --- | --- | --- | --- | --- | --- | --- | --- | --- | --- |
| COc1ccc(OC)c2c1CCC(NCc1cc(C)cc(Cl)c1)C2 (centres unmarked) [1-1·HCl, N-(3-chloro-5-methylbenzyl)-5,8-dimethoxy-1,2,3,4-tetrahydronaphthalen-2-amine hydrochloride] | 17.2 µM | 0.134 µM | full-agonism | ~100% | 23.2 µM | 10 µM | 0.172 µM |  |  |  |  |  |  |
| COc1ccc(OC)c(CCNCc2cc(C)cc(Cl)c2)c1 [Compound 2-1, N-(3-chloro-5-methylbenzyl)-2-(2,5-dimethoxyphenyl)ethan-1-amine] |  | 0.01 µM | partial-agonist | ~86% |  |  | 0.023 µM | 24.7 µM | ~4400 fold | 44.1 µM | no appreciable activity | 0.091 µM | 98% |
